Legend:
LOX3 = target: T1, LOX3 (Arabidopsis thaliana, UniProt Q9LNR3); experiment: LOX3 activity, spectrophotometric (conjugated diene formation at 234 nm); settings: for Mode of inhibition: Michaelis–Menten, Lineweaver–Burk and Dixon plots; for Photometry Relative activity (%) LOX3: enzyme 0.225 µg/µL incubated 10 min 30 °C with 280 µM chemical, 4.8 µM LeA, 50 mM Tris-HCl pH 7.2, vs solvent control; for Relative Activity (%) LOX3: E. coli lysate in 50 mM TRIS pH 8.0 diluted 1:10, 50 mM HEPES pH 8.0 + 1 mM metal salt, LeA, 234 nm
T1 sequence (Q9LNR3 71-919): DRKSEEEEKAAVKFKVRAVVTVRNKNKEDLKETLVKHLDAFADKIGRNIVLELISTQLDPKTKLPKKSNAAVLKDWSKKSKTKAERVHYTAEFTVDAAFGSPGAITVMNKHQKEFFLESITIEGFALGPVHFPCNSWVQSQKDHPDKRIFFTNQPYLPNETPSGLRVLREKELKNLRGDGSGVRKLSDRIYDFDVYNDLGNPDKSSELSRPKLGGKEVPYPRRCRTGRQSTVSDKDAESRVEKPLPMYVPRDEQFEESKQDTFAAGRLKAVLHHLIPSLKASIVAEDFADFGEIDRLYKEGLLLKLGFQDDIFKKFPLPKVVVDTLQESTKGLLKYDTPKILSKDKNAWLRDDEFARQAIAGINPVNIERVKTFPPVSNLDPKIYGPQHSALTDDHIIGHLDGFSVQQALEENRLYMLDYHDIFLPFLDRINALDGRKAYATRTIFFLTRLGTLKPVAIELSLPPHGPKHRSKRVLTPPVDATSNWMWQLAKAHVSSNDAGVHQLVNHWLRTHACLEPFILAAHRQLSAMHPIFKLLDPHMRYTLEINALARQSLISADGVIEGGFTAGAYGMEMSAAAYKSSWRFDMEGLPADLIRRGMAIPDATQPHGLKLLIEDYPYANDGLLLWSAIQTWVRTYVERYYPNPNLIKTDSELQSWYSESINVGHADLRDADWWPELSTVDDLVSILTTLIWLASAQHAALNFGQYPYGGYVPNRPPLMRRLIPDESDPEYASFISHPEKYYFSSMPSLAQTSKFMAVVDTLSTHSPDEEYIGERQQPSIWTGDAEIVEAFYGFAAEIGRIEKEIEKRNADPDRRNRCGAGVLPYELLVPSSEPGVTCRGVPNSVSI

LOX2 [1] = target: T2, LOX2 (Arabidopsis thaliana, UniProt P38418); experiment: LOX2 activity, oxygen electrode (polarography); format: biochemical; design: made in house; host or cells: E. coli Nico21(DE3), pET15b; settings: for activity at 280 µM: enzyme incubated with 280 µM chemical (1/10 vol of 2.8 mM), injected into 30 µM LeA, 50 mM Tris-HCl pH 7.2, vs solvent control, read-out: Polarography Relative Activity (%) LOX2; for Increase of LOX2 activity in comparison to control: 1 mM cation, LeA 30 µM, pH 8.0; for Relative Activity (%) LOX2: 1 mM metal salt, LeA 30 µM in 20 mM HEPES pH 8.0, oxygen consumption vs control without metal
T2 sequence (P38418 71-896): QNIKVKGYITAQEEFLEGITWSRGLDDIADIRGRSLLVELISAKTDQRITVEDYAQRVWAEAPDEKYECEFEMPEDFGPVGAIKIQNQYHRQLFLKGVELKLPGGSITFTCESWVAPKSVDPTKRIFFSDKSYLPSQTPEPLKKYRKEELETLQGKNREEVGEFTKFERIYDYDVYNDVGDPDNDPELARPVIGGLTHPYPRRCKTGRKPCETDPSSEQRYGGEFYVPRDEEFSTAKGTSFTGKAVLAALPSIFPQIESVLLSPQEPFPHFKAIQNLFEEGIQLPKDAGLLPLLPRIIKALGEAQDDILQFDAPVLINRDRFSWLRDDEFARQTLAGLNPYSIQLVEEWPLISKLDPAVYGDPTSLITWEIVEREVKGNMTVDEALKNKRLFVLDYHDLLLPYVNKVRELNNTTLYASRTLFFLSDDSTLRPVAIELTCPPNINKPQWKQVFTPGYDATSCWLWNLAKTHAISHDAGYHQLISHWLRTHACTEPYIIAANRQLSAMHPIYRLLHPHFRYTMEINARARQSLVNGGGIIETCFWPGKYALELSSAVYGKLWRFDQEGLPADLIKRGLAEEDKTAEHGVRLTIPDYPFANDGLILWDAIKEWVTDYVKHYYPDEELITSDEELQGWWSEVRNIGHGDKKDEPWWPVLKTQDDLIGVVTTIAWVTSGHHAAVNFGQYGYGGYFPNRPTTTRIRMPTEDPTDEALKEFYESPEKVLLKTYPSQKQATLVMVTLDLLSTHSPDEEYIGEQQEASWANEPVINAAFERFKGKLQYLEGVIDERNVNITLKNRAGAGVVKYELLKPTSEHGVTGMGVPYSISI

LOX2 [2] = target: T2, LOX2; experiment: LOX2 activity, spectrophotometric (conjugated diene formation at 234 nm); settings: for Mode of inhibition: Lineweaver–Burk plot, 12-OPDA tested at 226 µM; for Photometry Relative activity (%) LOX2: enzyme 0.225 µg/µL incubated 10 min 30 °C with 280 µM chemical, 4.8 µM LeA, 50 mM Tris-HCl pH 7.2, vs solvent control; for Relative Activity (%) LOX2: E. coli lysate in 50 mM TRIS pH 8.0 diluted 1:10, 50 mM HEPES pH 8.0 + 1 mM metal salt, LeA, 234 nm; for LOX2 activity in presence of Cd2+: 9 µM LeA, 20 mM HEPES pH 8.0, control 0.8 ± 0.2
LOX6 = target: T3, LOX6 (Arabidopsis thaliana, UniProt Q9CAG3); experiment: LOX6 activity, spectrophotometric (conjugated diene formation at 234 nm); settings: for Photometry Relative activity (%) LOX6: enzyme 0.225 µg/µL incubated 10 min 30 °C with 280 µM chemical, 4.8 µM LeA, 50 mM Tris-HCl pH 7.2, vs solvent control; for Relative Activity (%) LOX6: E. coli lysate in 50 mM TRIS pH 8.0 diluted 1:10, 50 mM HEPES pH 8.0 + 1 mM metal salt, LeA, 234 nm
T3 sequence (Q9CAG3 41-917): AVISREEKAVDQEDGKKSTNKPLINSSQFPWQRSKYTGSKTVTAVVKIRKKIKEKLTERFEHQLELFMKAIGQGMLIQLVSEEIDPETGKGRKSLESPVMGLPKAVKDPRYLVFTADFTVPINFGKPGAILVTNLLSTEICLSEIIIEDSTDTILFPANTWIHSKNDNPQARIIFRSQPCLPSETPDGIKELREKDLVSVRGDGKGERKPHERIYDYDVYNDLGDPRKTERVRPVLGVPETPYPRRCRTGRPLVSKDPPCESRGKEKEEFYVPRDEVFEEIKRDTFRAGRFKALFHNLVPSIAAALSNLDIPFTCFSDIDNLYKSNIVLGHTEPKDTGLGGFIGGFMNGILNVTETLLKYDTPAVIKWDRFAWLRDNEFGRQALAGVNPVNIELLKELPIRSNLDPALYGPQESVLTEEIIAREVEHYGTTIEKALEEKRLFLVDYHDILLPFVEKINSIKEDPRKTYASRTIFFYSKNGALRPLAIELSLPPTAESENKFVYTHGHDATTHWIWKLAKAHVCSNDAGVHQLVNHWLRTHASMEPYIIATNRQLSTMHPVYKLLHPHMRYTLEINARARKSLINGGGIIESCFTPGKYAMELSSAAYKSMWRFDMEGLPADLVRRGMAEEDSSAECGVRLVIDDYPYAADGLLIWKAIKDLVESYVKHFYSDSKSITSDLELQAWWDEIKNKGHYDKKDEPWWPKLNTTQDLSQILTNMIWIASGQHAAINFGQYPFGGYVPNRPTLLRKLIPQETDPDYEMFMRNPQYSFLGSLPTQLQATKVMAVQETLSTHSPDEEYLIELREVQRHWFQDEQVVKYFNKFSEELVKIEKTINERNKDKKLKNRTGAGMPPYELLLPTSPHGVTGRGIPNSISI

CCC=CCC1C(=O)C=CC1CCCCCCCC(=O)O (stereo not drawn) [12-OPDA, cis-(+)-12-oxophytodienoic acid]
IC50 (LOX3): 130 ± 31 µM | Ki (LOX3): 13 µM | Mode of inhibition (LOX3): non-competitive or mixed | Photometry Relative activity (%) LOX3 (LOX3): 35 ± 5% | activity at 280 µM (LOX2 [1]): 64 ± 4% | IC50 (LOX2 [2]): 280 to 338 µM | Mode of inhibition (LOX2 [2]): non-competitive | Photometry Relative activity (%) LOX2 (LOX2 [2]): 49 ± 10% | IC50 (LOX6): 280 to 338 µM | Mode of inhibition (LOX6; 226 µM): non-competitive | Photometry Relative activity (%) LOX6 (LOX6): 59 ± 10%

[Ca+2].[Cl-].[Cl-] [CaCl2]
Relative Activity (%) LOX3 (LOX3): 104±2% | Increase of LOX2 activity in comparison to control (LOX2 [1]): 590% | Relative Activity (%) LOX2 (LOX2 [1]): 690 ± 60% | Relative Activity (%) LOX2 (LOX2 [2]): 550±40% | Relative Activity (%) LOX6 (LOX6): 107±11%

O=S(=O)([O-])[O-].[Cd+2] [CdSO4]
Relative Activity (%) LOX3 (LOX3): 63±3% | Relative Activity (%) LOX2 (LOX2 [1]): 220 ± 18% | LOX2 activity in presence of Cd2+ (LOX2 [2]; 40 µM Cd2+, listed as Cd2+): 2.3 ± 0.3 nmol/s/mg | LOX2 activity in presence of Cd2+ (LOX2 [2]; 40 µM Cd2+, listed as Cd^2+): 2.3 ± 0.3 nmol/s/mg | LOX2 activity in presence of Cd2+ (LOX2 [2]; 150 µM Cd2+, listed as Cd2+): 5.2 ± 0.9 nmol/s/mg | LOX2 activity in presence of Cd2+ (LOX2 [2]; 150 µM Cd2+, listed as Cd^2+): 5.2 ± 0.9 nmol/s/mg | LOX2 activity in presence of Cd2+ (LOX2 [2]; 1180 µM Cd2+, listed as Cd2+): 5.7 ± 0.7 nmol/s/mg | LOX2 activity in presence of Cd2+ (LOX2 [2]; 1180 µM Cd2+, listed as Cd^2+): 5.7 ± 0.7 nmol/s/mg | Relative Activity (%) LOX2 (LOX2 [2]): 950±240% | Relative Activity (%) LOX6 (LOX6): 40±10%

CC/C=C\CC1C(=O)CCC1CC(=O)OC (stereo not drawn) [MJ, methyl jasmonate]
Ki (LOX3): 295 µM | Mode of inhibition (LOX3): non-competitive | activity at 280 µM (LOX2 [1]): 87 ± 10% | Mode of inhibition (LOX2 [2]): competitive | Photometry Relative activity (%) LOX2 (LOX2 [2]): 62 ± 10% | Photometry Relative activity (%) LOX6 (LOX6): 86 ± 6%

[Cl-].[Cl-].[Mg+2] [MgCl2]
Relative Activity (%) LOX3 (LOX3): 108±4% | Increase of LOX2 activity in comparison to control (LOX2 [1]): 70% | Relative Activity (%) LOX2 (LOX2 [1]): 170 ± 18% | Relative Activity (%) LOX2 (LOX2 [2]): 188±28% | Relative Activity (%) LOX6 (LOX6): 123±10%

O=C(O)c1ccccc1O [SA, salicylic acid]
activity at 280 µM (LOX2 [1]): 96 ± 7%

O=C(O)/C=C/CCCCCCCCC(=O)O [TA, traumatic acid]
Photometry Relative activity (%) LOX3 (LOX3): 103 ± 4% | activity at 280 µM (LOX2 [1]): 95 ± 8% | Photometry Relative activity (%) LOX2 (LOX2 [2]): 105 ± 5% | Photometry Relative activity (%) LOX6 (LOX6): 100 ± 9%
